The values below come from US20250057808A1, “COMPOSITION COMPRISING BETA LACTAM FOR TREATING ALCOHOL DEPENDENCE AND ALCOHOL ASSOCIATED DISEASES OR CONDITIONS” (Temple University of the Commonwealth System of Higher …, priority 2023, published 2025).

The subject of one series is GLT-1. Conditions: cited from earlier work.
A short description of series [1]: Ethanol drinking paradigm, three-bottle choice (MC-100093 50 mg/kg vs ceftriaxone 200 mg/kg). Type of series: in vivo, P rats. On the procedure: P rats were received from Indiana University School of Medicine (Indianapolis, IN, USA), and were housed in a 21° C. on a 12/12 h light/dark cycle-maintained room where they had free access to water and food. All experimental procedures were approved by the Institutional Animal Care and Use Committee (IACUC) of The University of Toledo, in accordance with the guidelines governing the use of animals in research of the National Institutes of Health as described in the Guidefor the Care and Use of Laboratory Animals.
(§1) We used an ethanol drinking paradigm as described previously by Alhaddad, et al. (2014). Briefly, animals started the experimental drinking procedure at age of 90 days. The animals had five weeks of exposure to continuous three-bottle choice drinking, 0%, 15% and 30%, v/v ethanol in water, available concurrently. Daily measurement of ethanol intake was performed (g of ethanol intake/kg of body weight/day). We measured the baseline ethanol drinking by average the intake during the last three weeks. Three groups of P rats (n=8-9/group) exposed to the five weeks ethanol exposure. At week 6, rats in each group received daily intraperitoneal injection of either MC-100093 at dose of 50 mg/kg (Ethanol-MC group), Ceftriaxone at dose of 200 mg/kg (Ethanol-CEF group, which also serves as positive control), or equivolume of saline vehicle (Ethanol group) for five days. This paradigm results in pharmacologically relevant blood alcohol concentration (50-200 mg %). Following the criteria for the development of ethanol dependence, rats whose average ethanol intake <4 g/kg/day were excluded from the study. Beside the ethanol exposed groups, another group of P rats (n=8) exposed to only water and food throughout the exposure procedures (control group).
All statistical analyses were conducted with Graphpad Prism software, with p-values of 0.05 or less being statistically significant. We performed a two-way (mixed model) ANOVA followed by Bonferroni multiple comparison post-hoc test to analyze 24 h ethanol consumption, 24 h water consumption, and daily body weight. For the Western blot and oil red O staining analysis, we performed one-way ANOVA with Newman-Keuls as a post hoc multiple comparison test to measure differences between groups as a percentage (relative to control values).

Series [2] in a line: Ethanol drinking, further studies with MC-100093 100 mg/kg. It is filed as in vivo, Male P rats. On the procedure: as §1
Further studies were conducted to investigate the impact of MC-100093 at higher dose (100 mg/kg, i.p.) on ethanol consumption and glutamate transporter 1 (GLT-1) expression in medial prefrontal cortex (mPFC) subregions such as prelimbic mPFC (PL) and infralimbic mPFC (IL). Male P rats (n=16) were divided in three groups: a) Control water group was exposed to water only for 5 weeks and received i.p. saline on Week 6 for 5 days; b) Saline group was exposed to free choice of ethanol (15% and 30% and water) for 5 weeks, and received saline (i.p.) on Week 6 for 5 days; and c) MC-100093 group was exposed to free choice of ethanol for 5 weeks and received MC-100093 (100 mg/kg/day, i.p.) for 5 days on Week 6.

The test system of a further series is HMGβ-1. Nature of the series: Western blot HMGβ-1 in subregions of mPFC and NAc. It is filed as in vivo, Male P rats. As for the experimental part: All P rats were euthanized by CO2 inhalation and decapitated with a guillotine 24 hours after the final i.p. injection was administered on Day 6 of Week 6. Brains were removed and immediately frozen on dry ice and stored at −80° C. The mPFC subregions (infralimbic cortex and prelimbic cortex) and NAc subregions (core and shell) were dissected using a cryostat machine kept at −20° C. Surgical blades were used to dissect all brain regions following visualized landmarks using the stereotaxic coordinates provided by Paxinos and colleague's rat brain stereotactic atlas. All brain regions were stored in −80° C. Western Blot analyses.
Western blot was performed to determine the expression of BDNF, TNF-α, RAGE, HMGβ-1, and β-tubulin in the subregions of mPFC and NAc as preformed in previous studies.
Brain samples were lysed with a lysing buffer containing protease inhibitors. The amount of protein in each sample was quantified using a detergent compatible protein assay (Bio-Rad, Hercules, CA, USA). Polyacrylamide gels (10%) were loaded with the lysate mixture, and proteins were separated using gel electrophoresis for 1 hour. Proteins were then transferred from the gels onto Polyvinylidene difluoride (PVDF) membranes (BioRad). After transfer, membranes were incubated for 30 minutes in a mixture of nonfat milk in 1×Tris-buffered saline with Tween-20 (TBST) at room temperature. Membranes were then incubated at 4° C. for 24 hours with primary antibodies: anti-rabbit BDNF (1:1000, Abeam, #ab108319), anti-rabbit TNF-α (1:500, Abeam, #ab9739), anti-rabbit HMGβ-1 (1:500, Abeam, #ab18256), and anti-rabbit RAGE (1:1000, Abeam, #ab37407). Anti-mouse-β-tubulin (1:1000, Cell Signaling Technology, #D71G9) was used as a loading control antibody. After incubating for 24 hours, secondary antibody such as donkey anti-rabbit (1:4000, Invitrogen, #31458) or anti-mouse (1:4000, Cell Signaling, #7076S) was added to the membrane for 1 hour at room temperature. The membranes were then washed with 1×TBST three times for 5 minutes each and then dried. Membranes were then incubated in chemiluminescent reagents (Super Signal West Pico, Pierce Inc.) for 2 minutes. Blot images were developed using ChemiDoc. Imaging System and ImageJ software version 1.53a were used to quantify and analyze the expression of BDNF, TNF-α, RAGE, HMGβ-1, and β-tubulin.
The data for the water/saline control group were expressed as 100% based on the values corresponding to the ethanol/saline and ethanol/MC-100093 groups for each set of blotting. Thus, the expression of selected proteins for each group (ethanol/saline group or ethanol/MC-100093 group) was calculated relative to the water/saline control group being set to 100%.
Statistical analyses were performed using GraphPad Prism Version 10. Two-way repeated measures ANOVA followed by Bonferroni post-hoc tests were used to compare water and ethanol intake, and body weight, amongst water group, ethanol/saline group and ethanol/MC-100093 group. A one-way ANOVA test was performed to compare the expression of the studied proteins in selected brain regions in water/saline, ethanol/saline and ethanol/MC-100093 groups. Statistical significance was determined by a p-value of or less than 0.05.
On the technique in general: Immunoblotting shows a protein as a band on a membrane.

Series [3] concerns gram-positive and gram-negative bacteria. Conditions: cited from earlier work.
[4] abbreviates: 100 mg/kg i.p., compared to ethanol/saline group.

Entries after “also recorded” stand apart in the source; their conditions may differ.

With `C[C@@H](O)[C@H]1C(=O)N[C@@H]1[C@@H](C)C(=O)N1CCN(C)CC1` [MC-100093], in the series on GLT-1, the GLT-1 upregulatory properties result is recorded as “potent GLT-1 upregulator; also recorded: enhanced GLT-1 upregulatory properties compared to ceftriaxone”. The “Body weight (grams)” value in series [1] (MC-100093 50 mg/kg i.p. or ceftriaxone 200 mg/kg i.p. 5 days) was “Neither MC-100093 (50 mg/kg, i.p.) nor Ceftriaxone (200 mg/kg, i.p.) treatment has significant effect; also recorded: no significant effects”. Further, the “Water intake (mL/day)” value in series [1] (MC-100093 50 mg/kg i.p. or ceftriaxone 200 mg/kg i.p. 5 days, vs Ethanol-Saline group (MC-100093: at day 5 only)) is “significant increase in water consumption”. Moreover, the “Ethanol consumption (g/kg of average body weight/24 hr)” value in series [1] (P rats after 5 wk ethanol, MC-100093 50 mg/kg i.p. or ceftriaxone 200 mg/kg i.p. daily 5 days, vs Ethanol-Saline group) is reported as “significant decrease in ethanol consumption from day 1 through day 5; also recorded: significantly reduced ethanol consumption from day 2 through day 5; also recorded: attenuated ethanol drinking behavior; also recorded: attenuated moderately ethanol intake as compared to ceftriaxone”. In series [2] (MC-100093 100 mg/kg i.p.), the “Reduction in ethanol consumption as compared to control vehicle group” value is recorded as “about 50%”. Further, the “Body weight (grams)” value in series [2] (MC-100093 100 mg/kg i.p. 5 days) is given as “no significant effects”. Further, the “Water intake (mL/day)” value in series [2] (MC-100093 100 mg/kg i.p. 5 days, vs ethanol/saline, 100 mg/kg) is listed as “significant increase in water intake; also recorded: increase in water consumption was observed on Days 1-5”. The “Ethanol consumption (g/kg/24 hr)” value in series [2] (male P rats, MC-100093 100 mg/kg i.p. 5 days on Week 6, vs ethanol/saline, 100 mg/kg) was “attenuated ethanol intake; also recorded: significantly reduced ethanol consumption on Day 1, 3, 4, and 5; also recorded: reduced ethanol intake on Days 2, 4, 5, 6; also recorded: effect similar to that of ceftriaxone”. In addition, in series [2] (male P rats, MC-100093 100 mg/kg/day i.p. 5 days), the Ethanol preference entry is “decreased ethanol preference”. Also, the “HMGβ-1 expression in the NAc shell” value in the series on HMGβ-1 (100 mg/kg i.p., compared to ethanol group) is “decreased the expression of HMGβ-1”. Also, in the series with HMGβ-1 (setting [4]), the “HMGβ-1 expression in the IL” value is given as “decreased HMGβ-1 expression”, the “HMGβ-1 expression in the NAc core” value is “decreased the expression of HMGβ-1” and the “HMGβ-1 expression in the PL” value is “decreased the expression of HMGβ-1”. In addition, the “HMGβ-1 expression in IL, PL, NAc core and NAc shell (summary)” value with HMGβ-1 (post-treatment with MC-100093 100 mg/kg i.p., 100 mg/kg) was “normalized HMGβ-1 expression in all these brain regions; also recorded: attenuated ethanol-induced upregulation of pro-inflammatory cytokines such as TNF-a and HMGB1”. Moreover, the “Antimicrobial / antibiotic activity” value in series [3] is on record as “without any antibiotic action; also recorded: no antibiotic activity; also recorded: no antibiotic actions; also recorded: lacking the antibacterial properties; also recorded: lacks antimicrobial activity; also recorded: does not have any antibiotic action”.
